Article PMC12648288, “Drastic Impact of Donor Substituents on Xanthenes in the PDT of Glioblastoma” (JACS Au, 2025)

How the values were obtained:
[1] = n-octanol/PBS distribution (LogP); assay type: physicochemical; conditions: Distribution coefficient in n-octanol/PBS solution
[2] = assay type: physicochemical; conditions: pH 5.4
Protocol: Before singlet oxygen trapping experiments were conducted, the photostability of NSeMorph and NSeAze was evaluated under irradiation with a 660 nm LED light source (24.3 mW/cm^2). […] Subsequently, their singlet oxygen generation capabilities were assessed in PBS buffer. 2,2′-(Anthracene-9,10-diyl)-bis(methylene)-dimalonic acid was used as a singlet oxygen trap to determine the quantum yields of singlet oxygen generation (ΦΔ). […] Furthermore, the ROS generation capabilities of the PSs were also evaluated using singlet oxygen sensor green (SOSG).
The gradual but pronounced lysosomal accumulation over time of NSeMoprh, coupled with only moderate mitochondrial targeting, restrict its ability to induce cell death via direct mitochondrial ROS production effectively. Conversely, NSeAze achieves rapid and efficient mitochondrial localization within the first hour of treatment in addition to significant lysosomal localization as well. […] To eliminate the possibility of degradation in lysosomes due to their acidic nature, the stabilities of both NSeMorph and NSeAze were evaluated at different pHs under both dark and light conditions.
Figure S5. Photostability of NSeMorph (20 μM) in sodium citrate buffer (1% DMSO) a. pH 5.4 and e. pH 6.4 upon irradiation with LED light (660 nm, 100 s total irradiation time) and its time dependent absorbance profile at b. pH 5.4, f. pH 6.4. […]

U87MG cells = assay: AO/EtBr staining for cell death; assay type: cell-based, human; conditions: IC50 concentration, after irradiation
Protocol: (§1) The rapid mitochondrial disruption often shifts the balance toward irreversible cell death pathways. […] In this regard, acridine orange/ethidium bromide (AO/EtBr) staining was performed to detect cell death. […]
(§2) Acridine Orange/Ethidium Bromide (AO/EtBr) staining for cell death
(§3) Dual acridine orange/ethidium bromide (AO/EtBr) staining was performed to discriminate live, early apoptotic and/or necrotic cells on the basis of membrane permeability.1,2 U87MG and U118MG cells were seeded in 24-well plates at a density of 5 × 10⁴ cells/well and treated with the IC₅₀ concentrations of the photosensitizers NSeMorph and NSeAze. After irradiation, cells were rested at 37 °C for 20 minutes, followed by staining with AO (2.5 µg/ml) and EtBr (2.5 µg/ml) in serum-free DMEM […]
(§4) under dark conditions for an additional 20-30 minutes. Subsequently, cells were washed with 1X PBS, and confocal images were taken at 500/525 nm (ex/em) for AO […]
(§5) Ta b l e S3. Comparison of recently reported PSs for the treatment of glioblastoma multiforme.
(§6) Photosensitizer Abs* Mwt IC (μM) Cell Line PI Ref. […]

U118MG cells = assay: AO/EtBr staining for cell death; assay type: cell-based, human; conditions: IC50 concentration, after irradiation
Protocol: as §1, §2, §3, §4, §5, §6

[3] = Absorption and emission spectra, fluorescence quantum yield; assay type: physicochemical; conditions: for ε (M^–1 cm^–1) / λabs (nm) / λems (nm): In PBS (pH 7.4, 1% DMSO); for φF (%) fluorescence quantum yield: Reference: methylene blue in MeOH (φF = 23%)
Protocol: First, the absorption and emission spectra of both PSs, NSeMorph and NSeAze, were recorded in PBS buffer (pH 7.4, 1% DMSO).
Photophysical Characterization
Fluorescence Quantum Yield
Fluorescence quantum yields of the samples were investigated using a fluorescence spectrometer (FLS 1000, Edinburgh Instruments) equipped with an integrating sphere accessory. A continuous-wave xenon lamp served as the excitation source, and the emitted fluorescence was detected with a standard photomultiplier (PMT-900) covering a wavelength range of 200-800 nm. During measurements, the PMT was cooled to - 20 °C using a built-in housing to reduce undesired dark current noise.
For quantum yield measurement, an integrating sphere (Edinburgh Instruments) was placed inside the spectrometer's sample compartment. The internal cavity of the sphere was coated with a PTFE-like material, enabling a reflectance of approximately […]
respectively. The sphere had two ports positioned 90° apart. The excitation beam was directed to the sample through the excitation port, and the fluorescence was collected from the emission port. The excitation port of the sphere included a lens to effectively focus the beam on the sample, while the emission port was an open aperture.
Prior to the experiments with the PSs, blank spectra were measured using the reference solvents (PBS, pH 7.4, 1% DMSO). For both measurements (blank and sample), two identical quartz cuvettes with equal volumes were used. Initially, the reference sample was placed inside the sphere, and the emission/excitation slits were adjusted to the excitation wavelength to ensure the PMT's response remained linear during measurements. To cover a scattering range, the emission scans started 20 nm below the actual excitation wavelengths and ended at 900 nm. Additionally, the step size and integration time of the measurements were set to 1 nm and 0.2 seconds, […]
Upon completing all emission measurements of the samples and references, the quantum yields of the samples were determined using the Fluoracle software. The built-in analysis tool calculates the quantum yield (QY) as: […]
where Es (EB) and Ss (SB) are the selected areas for the emitted and scattered signals

Row | SMILES | logP [1] | Photostability [2] | Cell death type (AO/EtBr) (U87MG cells) | Cell death type (AO/EtBr) (U118MG cells) | ε (M^–1 cm^–1) [3] | λabs (nm) [3] [nm] | λems (nm) [3] [nm] | φF (%) fluorescence quantum yield [3] [%]
1 | c1cc2nc3ccc(=[N+]4CCC4)cc-3[se]c2cc1N1CCC1 [NSeAze] | 0.81 | no significant photodecomposition | early apoptosis | late apoptosis/necrosis | 15,300 M^–1 cm^–1 | 671 | 695 | 8.2
2 | c1cc2nc3ccc(=[N+]4CCOCC4)cc-3[se]c2cc1N1CCOCC1 [NSeMorph] | -0.42 | no significant photodecomposition | early apoptosis | early apoptotic pattern | 16,600 M^–1 cm^–1 | 671 | 717 | 1.1
